This note sets out measurements from patent US9868727B2, “Factor XIa inhibitors” (Merck Sharp & Dohme Corp., priority 2014, dated 2018).

Assay [1] deals with T1, purified human Factor XIa (Homo sapiens, UniProt P03951).
T1 construct: purified human Factor XIa; purchased Sekisui Diagnostics
The experiment in a line: Factor XIa Assay. The format is biochemical. The conditions noted are these: fluorogenic substrate Z-Gly-Pro-Arg-AFC 100 μM, 40 pM enzyme, pH 7.4, read-out: F11a IC50. The procedure:
The effectiveness of a compound of the present invention as an inhibitor of Coagulation Factor XIa can be determined using a relevant purified serine protease, and an appropriate synthetic substrate. The rate of hydrolysis of the chromogenic or fluorogenic substrate by the relevant serine protease was measured both in the absence and presence of compounds of the present invention. Assays were conducted at room temperature or at 37° C. […] A decrease in the rate of fluorescence change in the presence of inhibitor is indicative of enzyme inhibition. Such methods are known to one skilled in the art. […]
Factor XIa determinations were made in 50 mM HEPES buffer at pH 7.4 containing 150 mM NaCl, 5 mM CaCl2, and 0.1% PEG 8000 (polyethylene glycol; JT Baker or Fisher Scientific). Determinations were made using purified human Factor XIa at a final concentration of 40 pM (Sekisui Diagnostics) and he synthetic substrate, Z-Gly-Pro-Arg-AFC, TFA salt (Sigma #C0980) at a concentration of 100 μM.
Activity assays were performed by diluting a stock solution of substrate at least tenfold to a final concentration ≦0.1 Km into a solution containing enzyme or enzyme equilibrated with inhibitor. Times required to achieve equilibration between enzyme and inhibitor were determined in control experiments. Initial velocities of product formation in the absence (VO) or presence of inhibitor (Vi) were measured. Assuming competitive inhibition, and that unity is negligible compared Km/[S], [I]/e, and [I]/e (where [S], [I], and e respectively represent the total concentrations, of substrate, inhibitor and enzyme), the equilibrium constant (Ki) for dissociation of the inhibitor from the enzyme can be obtained from the dependence of VO/Vi on [I] shown in the following equation.

Assay [2] deals with T2, purified Human plasma kallikrein (Homo sapiens, UniProt P03952).
T2 construct: yields a heavy chain (371 amino acids) and a light chain (248 amino acids); purchased Enzyme Research Laboratories
The experiment in a line: Kallikrein Assay. The format is biochemical. The conditions noted are these: Plasma Kallekrein IC50; fluorogenic substrate Acetyl-K-P-R-AFC, 0.5 nM enzyme, pH 7.4; read-out: PK IC50. The procedure:
The effectiveness of a compound of the present invention as an inhibitor of Kallikrein can be determined using a relevant purified serine protease, and an appropriate synthetic substrate. The rate of hydrolysis of the chromogenic or fluorogenic substrate by the relevant serine protease was measured both in the absence and presence of compounds of the present invention. Assays were conducted at room temperature or at 37° C. […] A decrease in the rate of fluorescence change in the presence of inhibitor is indicative of enzyme inhibition. Such methods are known to one skilled in the art. The results of this assay are expressed as the inhibitory constant, K1.
Kallikrein determinations were made in 50 mM HEPES buffer at pH 7.4 containing 150 mM NaCl, 5 mM CaCl2, and 0.1% PEG 8000 (polyethylene glycol; Fisher Scientific). Determinations were made using purified Human plasma kallikrein at a final concentration of 0.5 nM (Enzyme Research Laboratories) and the synthetic substrate, Acetyl-K—P—R-AFC (Sigma # C6608) at a concentration of […].
Times required to achieve equilibration between enzyme and inhibitor were determined in control experiments. The reactions were performed under linear progress curve conditions and fluorescence increase measured at 405 Ex/510 Em nm. […] IC50 was determined by inflection point from a four parameter logistic curve fit. Ki was calculated using the Cheng Prusoff equation, Ki=IC50/(1+([S]/Km)).

pIC50: −log10 of the molar value.

T2 sequence (P03952 391-638 limits assumed): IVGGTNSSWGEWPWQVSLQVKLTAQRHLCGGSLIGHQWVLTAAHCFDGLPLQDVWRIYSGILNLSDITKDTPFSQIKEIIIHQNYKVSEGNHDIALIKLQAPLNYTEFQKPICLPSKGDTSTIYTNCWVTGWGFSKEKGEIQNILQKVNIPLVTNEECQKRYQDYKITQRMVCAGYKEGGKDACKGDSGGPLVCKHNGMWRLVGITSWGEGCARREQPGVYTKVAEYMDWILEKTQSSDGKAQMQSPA
T2 sequence (P03952 20-390 partner limits assumed): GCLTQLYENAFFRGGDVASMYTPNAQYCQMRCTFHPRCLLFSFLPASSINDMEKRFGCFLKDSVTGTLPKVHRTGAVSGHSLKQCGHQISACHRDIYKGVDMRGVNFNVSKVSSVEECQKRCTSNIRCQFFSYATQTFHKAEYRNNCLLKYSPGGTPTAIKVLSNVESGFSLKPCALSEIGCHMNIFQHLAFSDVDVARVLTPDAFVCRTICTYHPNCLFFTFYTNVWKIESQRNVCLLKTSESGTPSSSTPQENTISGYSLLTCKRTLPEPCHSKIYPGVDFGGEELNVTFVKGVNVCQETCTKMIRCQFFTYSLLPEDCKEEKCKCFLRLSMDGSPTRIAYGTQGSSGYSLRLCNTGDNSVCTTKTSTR
T1 sequence (P03951 388-625 limits assumed): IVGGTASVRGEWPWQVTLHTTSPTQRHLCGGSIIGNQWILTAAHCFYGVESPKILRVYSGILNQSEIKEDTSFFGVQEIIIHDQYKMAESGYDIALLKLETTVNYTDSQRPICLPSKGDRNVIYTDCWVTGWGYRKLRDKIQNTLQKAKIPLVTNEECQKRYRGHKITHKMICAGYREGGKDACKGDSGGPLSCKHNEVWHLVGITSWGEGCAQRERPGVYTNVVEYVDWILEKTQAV
T1 sequence (P03951 19-387 partner limits assumed): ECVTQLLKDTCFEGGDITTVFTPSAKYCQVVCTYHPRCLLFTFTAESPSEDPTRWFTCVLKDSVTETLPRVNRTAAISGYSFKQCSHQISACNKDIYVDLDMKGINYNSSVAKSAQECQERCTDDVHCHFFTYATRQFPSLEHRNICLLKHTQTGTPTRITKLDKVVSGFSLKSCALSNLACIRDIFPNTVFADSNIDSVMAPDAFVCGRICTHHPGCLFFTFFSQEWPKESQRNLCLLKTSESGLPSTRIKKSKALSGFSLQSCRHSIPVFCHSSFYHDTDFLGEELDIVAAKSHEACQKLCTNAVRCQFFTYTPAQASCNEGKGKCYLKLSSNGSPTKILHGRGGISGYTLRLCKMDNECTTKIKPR

Take `COC(=O)Nc1ccc(-c2cnc(C(CC3CC3)c3ccc(-c4cc(Cl)ccc4-n4cnnn4)c[n+]3[O-])[nH]2)cc1F` (single isomer, unassigned) [Example 40]: the pIC50 in assay [1] is 8.82; in assay [2] it was 7.41.
In the case of `COC(=O)Nc1ccc(-c2cnc(C(CC3(C)CC3)c3ccc(-c4cc(Cl)ccc4-n4cnnn4)c[n+]3[O-])[nH]2)cc1` (single isomer, unassigned) [Example 44], the pIC50 in assay [1] is 8.82; in assay [2], 7.83.
Regarding `COC(=O)Nc1ccc(-c2cnc([C@H](Cc3ccccc3)c3ccc(-c4cc(Cl)ccc4-c4cnco4)c[n+]3[O-])[nH]2)cc1` [Example 25], the negative-log IC50 (pIC50) in assay [1] is 8.48; in assay [2], 7.62.
In the same order, the values of `[O-][n+]1cc(-c2cc(Cl)ccc2-n2cnnn2)ccc1C(Cc1ccc(F)cc1)c1nc(-c2ccc(Cl)cc2)c[nH]1` (single isomer, unassigned) [Example 22] are 8.19 and 6.71.
In the same order, the values of `NC(=O)c1scc(-c2cnc(C(CC3CC3)c3ccc(-c4cc(Cl)ccc4-n4cnnn4)c[n+]3[O-])[nH]2)c1F` (single isomer, unassigned) [Example 60, 2-(1-(5-(5-carbamoyl-4-fluorothiophen-3-yl)-1H-imidazol-2-yl)-2-cyclopropylethyl)-5-(5-chloro-2-(1H-tetrazol-1-yl)phenyl)pyridine 1-oxide] are 8.31 and 7.12.
For `[O-][n+]1cc(-c2cc(Cl)ccc2-n2cnnn2)ccc1C(Cc1ccc(F)cc1)c1nc(-c2ccc(F)cc2)c[nH]1` (single isomer, unassigned) [Example 16] the same measures were 8.42 and 9.11.
As for `O=C(O)c1ccc(-c2cnc(C(Cc3ccccc3)c3ccc(-c4cc(Cl)ccc4-n4cnnn4)c[n+]3[O-])[nH]2)cc1` (single isomer, unassigned) [Example 7], the pIC50 was 7.99 in assay [1] and 6.33 in assay [2].
For `COC(=O)Nc1ccc(-c2cnc(C(CC3CC3)c3ccc(-c4cc(Cl)ccc4-n4cnnn4)c[n+]3[O-])[nH]2)c(C)c1` (single isomer, unassigned) [Example 33] the same measures were 7.72 and 6.20.
In the case of `COC(=O)Nc1ccc(-c2c[nH]c(C(Cc3ccc(F)cc3)c3ccc(-c4c(C(F)F)ccc(Cl)c4F)c[n+]3[O-])n2)cc1` (racemic) [Example 13, 5-(3-Chloro-6-(difluoromethyl)-2-fluorophenyl)-2-(2-(4-fluorophenyl)-1-(4-(4-((methoxycarbonyl)amino)phenyl)-1H-imidazol-2-yl)ethyl)pyridine 1-oxide], the figures for the pIC50 in assay [1] and in assay [2] were 7.95 and 7.99, respectively.
In the same order, the values of `O=C(O)c1scc(-c2cnc(C(CC3CC3)c3ccc(-c4cc(Cl)ccc4-n4cnnn4)c[n+]3[O-])[nH]2)c1F` (single isomer, unassigned) [Example 57, 2-(1-(5-(5-carboxy-4-fluorothiophen-3-yl)-1H-imidazol-2-yl)-2-cyclopropylethyl)-5-(5-chloro-2-(1H-tetrazol-1-yl)phenyl)pyridine 1-oxide] are 8.82 and 7.24.
Turning to `N#Cc1cccc(-c2cnc(C(CC3CC3)c3ccc(-c4cc(Cl)ccc4-n4cnnn4)c[n+]3[O-])[nH]2)c1` (single isomer, unassigned) [Example 36], the negative-log IC50 (pIC50) is 7.56 in assay [1] and 6.42 in assay [2].
For `[O-][n+]1cc(-c2cc(Cl)ccc2-n2cnnn2)ccc1C(Cc1ccc(F)cc1)c1nc(-c2ccc(F)cc2)c[nH]1` (single isomer, unassigned) [Example 17] the same measures were 7.83 and 6.39.
`O=C(O)c1ccc(-c2cnc(C(Cc3ccccc3)c3ccc(-c4cc(Cl)ccc4-n4cnnn4)c[n+]3[O-])[nH]2)cc1` (single isomer, unassigned) [Example 8]: the negative logarithm of the IC50 (pIC50) in assay [1] was 9.17; in assay [2], 7.59.
In the case of `COC(=O)Nc1ccc(-c2cnc(C(CC3CC3)c3ccc(-c4cc(Cl)ccc4-n4cnnn4)c[n+]3[O-])[nH]2)c(F)c1` (single isomer, unassigned) [Example 38], the negative logarithm of the IC50 (pIC50) was 9.32 in assay [1] and 7.41 in assay [2].
For `COC(=O)Nc1ccc(-c2cnc(C(CC3CC3)c3ccc(-c4cc(Cl)ccc4-c4csnn4)c[n+]3[O-])[nH]2)cc1` (racemic) [Example 72] the same measures were 7.29 and 5.58.
In the same order, the values of `COC(=O)Nc1ccc(-c2cnc([C@H](Cc3ccccc3)c3ccc(-c4c(-n5cnnn5)ccc(Cl)c4F)c[n+]3[O-])[nH]2)cc1` [Example 23] are 8.98 and 8.81.
In the same order, the values of `COC(=O)Nc1ccc(-c2nnc(C(Cc3ccccc3)c3ccc(-c4cc(Cl)ccc4-n4cnnn4)c[n+]3[O-])o2)cc1` (racemic) [Example 83, 5-(5-chloro-2-(1H-tetrazol-1-yl)phenyl)-2-(1-(5-(4-((methoxycarbonyl)amino)phenyl)-1,3,4-oxadiazol-2-yl)-2-phenylethyl)pyridine 1-oxide] are 8.92 and 7.17.
With `Nc1ccc(-c2c[nH]c(C(CC3CC3)c3ccc(-c4cc(Cl)ccc4-n4cnnn4)c[n+]3[O-])n2)cn1` (single isomer, unassigned) [Example 50], the pIC50 is 8.97 in assay [1] and 6.64 in assay [2].
For `COC(=O)Nc1ccc(-c2cnc(C(CC3CC3)c3ccc(-c4cc(Cl)ccc4-n4cc(Cl)nn4)c[n+]3[O-])[nH]2)cc1` (racemic) [Example 67] the same measures were 8.19 and 6.68.
Take `COC(=O)Nc1ccc(-c2cnc(C(CC3CC3)c3ccc(-c4cc(Cl)ccc4-n4cnnn4)c[n+]3[O-])[nH]2)c(Cl)c1` (single isomer, unassigned) [Example 42]: the negative-log IC50 (pIC50) in assay [1] is 9.24; in assay [2], 7.55.
With `COC(=O)Nc1ccc(-c2cnc(C(CC3CC3)c3ccc(-c4cc(Cl)ccc4-c4cnco4)c[n+]3[O-])[nH]2)cc1` (single isomer, unassigned) [Example 69], the values for the negative-log IC50 (pIC50) in assay [1] and in assay [2] were 7.32 and 6.45, respectively.
In the same order, the values of `COC(=O)Nc1ccc(-c2nc([C@@H](Cc3ccccc3)c3ccc(-c4cc(Cl)ccc4-n4cnnn4)c[n+]3[O-])[nH]c2Cl)cc1` [Example 2, (S) 5-(5-Chloro-2-(1H-tetrazol-1-yl)phenyl)-2-(1-(5-chloro-4-(4-((methoxycarbonyl)amino)phenyl)-1H-imidazol-2-yl)-2-phenylethyl)pyridine 1-oxide] are 8.55 and 7.12.
For `O=C(O)c1cccc(-c2cnc(C(CC3CC3)c3ccc(-c4cc(Cl)ccc4-n4cnnn4)c[n+]3[O-])[nH]2)c1F` (single isomer, unassigned) [Example 51, 3-[2-(1-{5-[5-chloro-2-(1H-tetrazol-1-yl)phenyl]-1-oxidopyridin-2-yl}-2-cyclopropylethyl)-1H-imidazol-5-yl]-2-fluorobenzoic acid] the same measures were 9.06 and 7.10.
Regarding `O=C(O)c1scc(-c2c[nH]c(C(Cc3ccccc3)c3ccc(-c4cc(Cl)ccc4-n4cnnn4)c[n+]3[O-])n2)c1F` (single isomer, unassigned) [Example 9], the pIC50 is 9.72 in assay [1] and 9.03 in assay [2].

By pIC50 is commonly meant the IC50 on a negative log10 scale, so that one unit is a factor of ten.
